Measurements taken from US10407467B2, “Polymyxin derivatives and their use in combination therapy together with different antibiotics” (priority 2013, dated 2019).
Structures can show the parent of a compound that is named as a salt. Numbered stars: 1 amine (or outer) side, 2 acyl side, 3 side chain; on linkers, the order of the positions; unused ones are H or OH. Bridge positions count the residues as written; N and C are the ends. Square brackets hold non-standard residues; d marks the D form. Peptide text beside a SMILES is read from it. * marks the point of attachment. ξ: configuration not given here. Achc(trans-4) = O=C([C@H]1CC[C@H](N[*:1])CC1)[*:2]; Thr(3ξ) = CC(O)[C@H](N)C(=O)O; Dab = NCC[C@H](N)C(=O)O; Dap = NC[C@H](N)C(=O)O; X4 = NC1CCCC1C(=O)*

Legend:
Format in all cases: cell-based
[1] = system: Acinetobacter baumannii; assay: MIC, compound in combination with a second agent (broth microdilution); settings: for MIC A. baumannii ATCC BAA-747: strain ATCC BAA-747; for MIC A. baumannii CCUG57249: strain CCUG57249; for MIC A. baumannii NCTC 13423: strain NCTC 13423
Procedure, shortened: (§1)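 Equal-mass combos (compound in TFA or sulphate salt form plus second agent); direct colony suspension, 0.5 McFarland; duplicate wells; MIC expressed as summed concentration of both drugs.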

[2] = system: Escherichia coli; assay: as above
Procedure, shortened: as §1

[3] = system: Klebsiella pneumoniae; assay: as above; settings: for MIC K. pneumoniae ATCC-BAA-2146: strain ATCC-BAA-2146; for MIC K. pneumoniae CCUG-59348: strain CCUG-59348
Procedure, shortened: as §1

[4] = system: Pseudomonas aeruginosa; assay: as above; settings: for MIC P. aeruginosa ATCC CRM-9027: strain ATCC CRM-9027; for MIC P. aeruginosa ATCC-47: strain ATCC-47
Procedure, shortened: as §1

[5] = system: Acinetobacter baumannii; assay: MIC, sole activity (no second agent)
Procedure, shortened: (§2)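 Inoculum: direct colony suspension (18-24 h MH agar), 0.5 McFarland. Medium: cation-adjusted MHB. Up to 4 strains/species; reported relative to Polymyxin B.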

[6] = system: Escherichia coli; assay: MIC, sole activity (no second agent); settings: for MIC E. coli ATCC25922: strain ATCC25922
Procedure, shortened: as §2

[7] = system: Klebsiella pneumoniae; assay: MIC, sole activity (no second agent); settings: for MIC K. pneumoniae ATCC-BAA2146: strain ATCC-BAA2146; for MIC K. pneumoniae CCUG-59348: strain CCUG-59348
Procedure, shortened: as §2

[8] = system: Pseudomonas aeruginosa; assay: MIC, sole activity (no second agent)
Procedure, shortened: as §2

[9] = 1:1 (wt:wt) combination with Rifampicin, MIC = total drug concentration
[10] = 1:1 (wt:wt) combination with Rifampicin, MIC = total drug concentration, strain NCTC 13424
[11] = 1:1 combination with Ciprofloxacin (by row order), total drug concentration
[12] = 1:1 (wt:wt) combination with Rifampicin, MIC = total drug concentration, strain ATCC25922
[13] = 1:1 (wt:wt) combination with Rifampicin, MIC = total drug concentration, strain NCTC9001
[14] = 1:1 combination with Ciprofloxacin, total drug concentration
[15] = 1:1 combination with Tigecycline, total drug concentration
[16] = 1:1 combination with Vancomycin, total drug concentration
[17] = 1:1 (wt:wt) combination with Rifampicin, MIC = total drug concentration, strain ATCC 4352
[18] = 1:1 (wt:wt) combination with Rifampicin, MIC = total drug concentration, strain ATCC 27853
[19] = 1:1 (wt:wt) combination with Rifampicin, MIC = total drug concentration, strain CCUG 59626
[20] = Second Agent none (Table 7B, by row order)
[21] = in the absence of Rifampicin, strain NCTC9001
[22] = in the absence of Rifampicin, strain ATCC 4352
[23] = in the absence of Rifampicin, strain ATCC27853
[24] = in the absence of Rifampicin, strain CCUG 59626

CC(C)C[C@@H]1NC(=O)[C@@H](Cc2ccccc2)NC(=O)[C@H](CCN)NC(=O)[C@@H](NC(=O)[C@H](CCN)NC(=O)[C@@H](NC(=O)[C@H]2CC[C@H](N)CC2)[C@@H](C)O)CCNC(=O)[C@H]([C@@H](C)O)NC(=O)[C@H](CCN)NC(=O)[C@H](CCN)NC1=O [Example 17, Trans-4-aminocyclohexane-carbonyl polymyxin B nonapeptide] (H-[Achc(trans-4)]T[Dab][Dab][Dab][dF]L[Dab][Dab]T; lactam 4-C)
0.25 micrograms/mL: MIC E. coli NCTC9001 ([2]; E. coli NCTC9001, 1:1 combination with Meropenem, total drug concentration) | MIC K. pneumoniae NCTC 13438 ([3]; 1:1 (wt:wt) combination with Rifampicin, MIC = total drug concentration, strain NCTC 13438) | MIC P. aeruginosa CCUG 59626 [4, 15] | MIC E. coli CCUG 59342 ([6]; Second Agent none (Table 7B)) | MIC P. aeruginosa CCUG 59626 ([8]; P. aeruginosa CCUG 59626, second agent none) | MIC P. aeruginosa CCUG 59626 [8, 20] | MIC P. aeruginosa CCUG 59626 ([8]; Second Agent none (Table 7C)) | MIC P. aeruginosa CCUG 59626 [8, 24]
32 microgram/mL: MIC K. pneumoniae NCTC 13442 [3, 16]
16 microgram/mL: MIC E. coli NCTC9001 [2, 16]
>32 micrograms/mL: MIC K. pneumoniae CCUG 59348 [3, 14] | MIC K. pneumoniae CCUG 59348 [3, 15] | MIC K. pneumoniae CCUG 59348 ([3]; K. pneumoniae CCUG 59348, 1:1 combination with Meropenem, total drug concentration) | MIC K. pneumoniae CCUG 59348 ([7]; K. pneumoniae CCUG 59348, second agent none) | MIC K. pneumoniae NCTC 13442 ([7]; K. pneumoniae NCTC 13442, second agent none) | MIC K. pneumoniae CCUG 59348 ([7]; Second Agent none (Table 7B)) | MIC K. pneumoniae NCTC 13442 ([7]; Second Agent none (Table 7B)) | MIC K. pneumoniae CCUG 59348 ([7]; Second Agent none (Table 7C)) | MIC K. pneumoniae NCTC 13442 ([7]; Second Agent none (Table 7C)) | MIC K. pneumoniae CCUG-59348 ([7]; in the absence of Rifampicin)
2 micrograms/mL: MIC K. pneumoniae CCUG-59348 [3, 9] | MIC E. coli ATCC25922 ([6]; in the absence of Rifampicin)
16 micrograms/mL: MIC E. coli NCTC9001 [2, 15] | MIC K. pneumoniae NCTC 13442 [3, 15] | MIC K. pneumoniae NCTC 13442 ([3]; K. pneumoniae NCTC 13442, 1:1 combination with Meropenem, total drug concentration) | MIC E. coli NCTC9001 ([6]; Second Agent none (Table 7B)) | MIC E. coli NCTC9001 [6, 21]
1 micrograms/mL: MIC K. pneumoniae NCTC 13442 [3, 14]
4 micrograms/mL: MIC K. pneumoniae ATCC BAA-1706 ([3]; K. pneumoniae ATCC BAA-1706, 1:1 combination with Meropenem, total drug concentration) | MIC A. baumannii NCTC 13424 [5, 20]
0.5 micrograms/mL: MIC A. baumannii NCTC 13424 [1, 11] | MIC E. coli CCUG 59342 [2, 14] | MIC P. aeruginosa CCUG 59626 [4, 11] | MIC P. aeruginosa CCUG 59626 ([4]; P. aeruginosa CCUG 59626, 1:1 combination with Meropenem, total drug concentration)
8 micrograms/mL: MIC K. pneumoniae ATCC-BAA2146 ([7]; in the absence of Rifampicin)
32 micrograms/mL: MIC K. pneumoniae NCTC-13438 ([7]; in the absence of Rifampicin, strain NCTC-13438)
0.25 microgram/mL: MIC K. pneumoniae CCUG 59626 [3, 16] | MIC K. pneumoniae CCUG 59626 ([7]; Second Agent none (Table 7A))
>32 microgram/mL: MIC K. pneumoniae CCUG 59348 [3, 16] | MIC K. pneumoniae CCUG 59348 ([7]; Second Agent none (Table 7A)) | MIC K. pneumoniae NCTC 13442 ([7]; Second Agent none (Table 7A))
0.125 micrograms/mL: MIC A. baumannii ATCC BAA-747 [1, 9] | MIC E. coli NCTC9001 [2, 13] | MIC K. pneumoniae ATCC 4352 [3, 17] | MIC K. pneumoniae ATCC-BAA-2146 [3, 9] | MIC P. aeruginosa ATCC 27853 [4, 18] | MIC P. aeruginosa ATCC CRM-9027 [4, 9] | MIC P. aeruginosa ATCC-47 [4, 9] | MIC P. aeruginosa CCUG 59626 [4, 19] | MIC K. pneumoniae ATCC 4352 [7, 20] | MIC K. pneumoniae ATCC 4352 [7, 22] | MIC P. aeruginosa ATCC 27853 [8, 20] | MIC P. aeruginosa ATCC 27853 [8, 23]
<0.06 micrograms/mL: MIC A. baumannii CCUG57249 [1, 9] | MIC A. baumannii NCTC 13424 [1, 10]
≤0.06 micrograms/mL: MIC A. baumannii NCTC 13423 [1, 9] | MIC E. coli ATCC25922 [2, 12] | MIC E. coli ATCC25922 [2, 14] | MIC E. coli NCTC9001 [2, 14] | MIC K. pneumoniae ATCC 4352 [3, 11] | MIC P. aeruginosa ATCC 27853 [4, 11]

CC(C)C[C@@H]1NC(=O)[C@@H](Cc2ccccc2)NC(=O)[C@H](CCN)NC(=O)[C@@H](NC(=O)[C@H](CN)NC(=O)[C@@H](NC(=O)C2CCCC2N)C(C)O)CCNC(=O)[C@H](C(C)O)NC(=O)[C@H](CCN)NC(=O)[C@H](CCN)NC1=O (stereo partly drawn) [Example 43, [2-Amino-cyclopentane-carbonyl]-L-Thr-L-Dap-polymyxin B hepatapeptide, TFA salt] (X4-[Thr(3ξ)][Dap][Dab][Dab][dF]L[Dab][Dab][Thr(3ξ)]; lactam 3-C)
≤0.06 micrograms/mL: MIC A. baumannii CCUG57249 [1, 9] | MIC A. baumannii NCTC 13423 [1, 9] | MIC P. aeruginosa CCUG 59626 [8, 24]
4 micrograms/mL: MIC K. pneumoniae ATCC-BAA2146 ([7]; in the absence of Rifampicin)
0.25 micrograms/mL: MIC K. pneumoniae ATCC-BAA-2146 [3, 9] | MIC A. baumannii ATCC13424 ([5]; in the absence of Rifampicin, strain ATCC13424)
0.5 micrograms/mL: MIC A. baumannii ATCCBAA-747 ([5]; in the absence of Rifampicin, strain ATCCBAA-747) | MIC A. baumannii CCUG57249 ([5]; in the absence of Rifampicin, strain CCUG 57249) | MIC K. pneumoniae ATCC 4352 [7, 22]
0.125 micrograms/mL: MIC A. baumannii ATCC BAA-747 [1, 9] | MIC A. baumannii NCTC 13424 [1, 10] | MIC E. coli ATCC25922 [2, 12] | MIC E. coli NCTC9001 [2, 13] | MIC K. pneumoniae ATCC 4352 [3, 17] | MIC P. aeruginosa ATCC 27853 [4, 18] | MIC P. aeruginosa ATCC CRM-9027 [4, 9] | MIC P. aeruginosa ATCC-47 [4, 9] | MIC P. aeruginosa CCUG 59626 [4, 19] | MIC A. baumannii NCTC 13423 ([5]; in the absence of Rifampicin, strain NCTC13423) | MIC P. aeruginosa ATCC 27853 [8, 23] | MIC P. aeruginosa ATCCCRM-9027 ([8]; in the absence of Rifampicin, strain ATCCCRM-9027)
1 micrograms/mL: MIC P. aeruginosa ATCC-47 ([8]; in the absence of Rifampicin, strain ATCC-47)
2 micrograms/mL: MIC K. pneumoniae CCUG-59348 [3, 9] | MIC E. coli ATCC25922 ([6]; in the absence of Rifampicin)
16 micrograms/mL: MIC E. coli NCTC9001 [6, 21]
>32 micrograms/mL: MIC K. pneumoniae CCUG-59348 ([7]; in the absence of Rifampicin)
